Data published in patent US7671061B2, “Methods and compositions for treating pain” (Hydra Biosciences, Inc., priority 2005, dated 2010).

The compounds below were run against T1, hTRPA1 (Homo sapiens, UniProt O75762, K186N) (assay: High throughput Ca2+ fluorescence (Fluo4) assay, AITC stimulation). Details: Table 1; read-out: hTRPA1 Fluo4 IC50.
T1 construct: expressed in transfected cells; host or cells: HEK293/TREx (Invitrogen), induced with tetracycline
Type: cell-based
From the text: The assay depended on detection of the rise in intracellular Ca^2+ concentration ([Ca^2+]i) following channel activation in cells inducibly expressing the TRPA1 channel. Ca^2+ rise was quantified with the use of fluorescent Ca^2+ indicators that were loaded into cells and thereafter indicated the [Ca^2+]i. Ca^2+ influx followed activation of the TRPA1 channel. Compounds inhibiting the [Ca^2+]i rise were considered hits for further investigation.
These cells were maintained in the growth medium recommended by the manufacturer supplemented with 100 μg/ml hygromycin to promote retention of the TRPA1 construct. After growing to near confluency, cells were plated at a density of ˜25,000 cells/well in 384 well CellBind plates (Corning) in the presence of 1 μg/ml tetracycline, and allowed to grow for 20-30 hrs. A nearly confluent monolayer resulted. Cells were then loaded with Ca^2+ dye: Fura-2/AM or Fluo4/AM was added to the wells to a final concentration of 2 μM or 1 μM, respectively, and incubated for 80 min or 60 min, respectively, at room temperature. […] Frames were acquired at a rate of 0.2 Hz. During the assay, the plates were continuously […], with pipette mixing of wells following addition of each reagent. For the screening assay, 13 μl of a diluted stock (at 50 μM) was added to each well for 2 minutes following the collection of a short (4 frame) baseline. […] Data was collected for ˜3 minutes following addition of AITC, where the fluorescent intensity (for Fluo4) and the F340/F380 ratio (for Fura-2) were proportional to the [Ca^2+]i. Negative controls consisted of HEK293/TREx TRPA1 cells exposed to AITC, but no compound. […] These controls defined a screening window, and “hits” were defined as those compounds inhibiting the fluorescence response by at least 40%. IC50 values were determined for compounds defined as “hits.” The Fluo4 cell-based fluorescence assay was used to determine the intracellular Ca^2+ concentration in the presence of varying drug concentration. […] Compounds were tested in triplicate at all concentrations. Standard software was used to fit IC50 curves.

T1 sequence (O75762 whole entry K186N): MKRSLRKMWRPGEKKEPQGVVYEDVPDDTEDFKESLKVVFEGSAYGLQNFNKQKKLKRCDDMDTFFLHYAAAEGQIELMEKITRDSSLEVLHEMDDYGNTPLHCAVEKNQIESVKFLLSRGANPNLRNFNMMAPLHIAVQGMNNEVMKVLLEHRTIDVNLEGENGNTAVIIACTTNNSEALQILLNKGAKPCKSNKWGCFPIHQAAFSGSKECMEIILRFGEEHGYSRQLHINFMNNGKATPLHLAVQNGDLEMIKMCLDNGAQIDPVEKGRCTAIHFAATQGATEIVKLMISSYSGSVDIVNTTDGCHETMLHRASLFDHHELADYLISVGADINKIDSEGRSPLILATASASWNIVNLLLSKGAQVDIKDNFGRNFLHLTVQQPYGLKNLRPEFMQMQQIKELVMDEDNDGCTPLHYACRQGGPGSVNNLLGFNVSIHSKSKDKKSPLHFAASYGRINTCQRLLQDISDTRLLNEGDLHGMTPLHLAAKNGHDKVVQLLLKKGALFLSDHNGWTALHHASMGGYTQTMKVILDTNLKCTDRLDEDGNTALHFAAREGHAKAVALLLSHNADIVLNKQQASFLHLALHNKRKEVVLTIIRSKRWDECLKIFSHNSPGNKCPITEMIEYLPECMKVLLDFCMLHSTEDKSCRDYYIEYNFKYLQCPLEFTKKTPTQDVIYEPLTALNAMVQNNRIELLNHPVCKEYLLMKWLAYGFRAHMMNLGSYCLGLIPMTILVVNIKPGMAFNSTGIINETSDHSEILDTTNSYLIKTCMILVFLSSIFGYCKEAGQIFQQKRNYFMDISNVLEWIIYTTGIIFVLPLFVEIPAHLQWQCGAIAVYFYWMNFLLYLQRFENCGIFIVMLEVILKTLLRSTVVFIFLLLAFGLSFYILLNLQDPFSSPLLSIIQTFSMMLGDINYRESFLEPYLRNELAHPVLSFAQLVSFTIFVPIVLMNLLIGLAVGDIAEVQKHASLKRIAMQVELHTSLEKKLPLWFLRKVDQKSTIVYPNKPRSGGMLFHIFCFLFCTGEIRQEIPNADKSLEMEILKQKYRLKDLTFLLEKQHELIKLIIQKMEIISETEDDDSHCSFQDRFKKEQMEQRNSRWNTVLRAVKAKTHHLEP

| SMILES | IC50 |
| --- | --- |
| CCOC(=O)C1=C(c2ccccc2)NC(=S)NC1c1cccc(OC)c1OC (centres unmarked) | > 10 µM |
| CCOC(=O)C1=C(C)NC(=O)NC1c1ccccc1C (centres unmarked) | > 10 µM |
| CCN(CC)C(=O)C1=C(C)NC(=S)NC1c1ccc(Br)cc1 (centres unmarked) | > 10 µM |
| CCCCCOC(=O)C1=C(C)NC(=O)NC1c1cccc(Br)c1 (centres unmarked) | > 10 µM |
| CCOC(=O)C1=C(c2ccccc2)NC(=O)NC1c1ccc(CC)cc1 (centres unmarked) | ≤ 10 µM |
| COC(=O)C1=C(C)NC(=O)NC1c1ccc(F)c(Br)c1 (centres unmarked) | > 10 µM |
| COCCOC(=O)C1=C(C)NC(=S)NC1c1ccc(C(C)C)cc1 (centres unmarked) | > 10 µM |
| C=CCOC(=O)C1=C(C)NC(=S)NC1c1ccccc1F (centres unmarked) | > 10 µM |
| COC(=O)C1=C(C)NC(=O)NC1c1ccccc1OC (centres unmarked) | > 10 µM |
| CC1=C(C(=O)OCCc2ccccc2)C(c2ccc(Cl)cc2)NC(=O)N1 (centres unmarked) | ≤ 5 µM |
| CC1=C(C(=O)Nc2ccccc2)C(c2ccc(F)cc2)NC(=S)N1 (centres unmarked) | ≥ 30 µM |
| CC1=C(C(=O)OCc2ccc(C)cc2)C(c2ccccc2)NC(=O)N1 (centres unmarked) | > 10 µM |
| CCCOC(=O)C1=C(C)NC(=O)NC1c1cccc2ccccc12 (centres unmarked) | > 10 µM |
| CCOC(=O)C1=C(c2ccc(N(C)C)cc2)NC(=O)NC1c1ccccc1 (centres unmarked) | ≤ 1 µM |
| COc1cc(OC)c(C2NC(=S)NC(C)=C2C(=O)N(C)C)cc1Br (centres unmarked) | > 10 µM |
| CC1=C(C(=O)OC(C)C)C(c2ccccc2F)NC(=S)N1 (centres unmarked) | > 10 µM |
| COC(=O)C1=C(C)NC(=O)NC1c1ccc(O)cc1 (centres unmarked) | > 10 µM |
| CCOC(=O)C1=C(C)NC(=S)NC1c1ccc(O)c(OC)c1 (centres unmarked) | ≤ 10 µM |
| COC(=O)C1=C(C)NC(=S)NC1c1ccccc1C (centres unmarked) | ≥ 30 µM |
| CCOC(=O)C1=C(c2ccccc2)NC(=O)NC1c1ccccc1F (centres unmarked) | > 10 µM |
| CC1=C(C(=O)OC2CCCCC2)C(c2ccc(F)cc2)NC(=O)N1 (centres unmarked) | > 10 µM |

| SMILES | IC50 |
| --- | --- |
| COC(=O)C1=C(C)NC(=S)NC1c1ccccc1OC(C)C (centres unmarked) | > 10 µM |
| CCOC(=O)C1=C(C)N(C)C(=S)NC1c1ccccc1 (centres unmarked) | > 10 µM |
| CC1=C(C(=O)N(C)C)C(c2ccc(C)cc2)NC(=S)N1 (centres unmarked) | > 10 µM |
| CCOC(=O)C1=C(C)NC(=S)NC1c1ccc(OC)c(OC)c1 (centres unmarked) | > 10 µM |
| COC(=O)C1=C(C)NC(=O)NC1c1ccc2ccccc2c1 (centres unmarked) | > 10 µM |
| COC(=O)C1=C(C)NC(=S)NC1c1cc(OC)ccc1Br (centres unmarked) | ≤ 5 µM |
| COc1cccc(C2NC(=S)NC(C)=C2C(=O)OCc2ccccc2)c1 (centres unmarked) | > 10 µM |
| CC1=C(C(=O)OCCc2ccccc2)C(c2ccccc2)NC(=O)N1 (centres unmarked) | > 10 µM |
| CCOC(=O)C1=C(C)NC(=S)NC1c1cc(OC)ccc1OC (centres unmarked) | > 10 µM |
| CC1=C(C(=O)OCCc2ccccc2)C(c2ccc(F)cc2)NC(=O)N1 (centres unmarked) | > 10 µM |
| CC1=C(C(=O)OCc2ccc(C)cc2)C(c2ccc(F)cc2)NC(=O)N1 (centres unmarked) | > 10 µM |
| CC1=C(C(=O)OC(C)C)C(c2c(O)ccc3ccccc23)NC(=S)N1 (centres unmarked) | > 10 µM |
| CC1=C(C(=O)OCC(F)(F)F)C(c2ccc(Br)cc2)NC(=O)N1 (centres unmarked) | > 10 µM |
| CCOC(=O)C1=C(c2ccccc2)NC(=S)NC1c1ccccc1OC (centres unmarked) | > 10 µM |
| CCOC(=O)C1=C(C)NC(=S)NC1c1cc(OC)ccc1Br (centres unmarked) | > 10 µM |
| COC(=O)C1=C(C)NC(=S)NC1c1ccc(OC(C)C)cc1 (centres unmarked) | > 10 µM |
| CC1=C(C(=O)N2CCOCC2)C(c2cccc(F)c2)NC(=O)N1 (centres unmarked) | ≤ 5 µM |
| CCOC(=O)C1=C(C)NC(=S)NC1c1ccc(O)cc1 (centres unmarked) | > 10 µM |
| CC1=C(C(=O)N2CCOCC2)C(c2cccc(Br)c2)NC(=O)N1 (centres unmarked) | > 10 µM |
| CC1=C(C(=O)N(C)C)C(c2c(F)cccc2Cl)NC(=S)N1 (centres unmarked) | > 10 µM |
| C=CCOC(=O)C1=C(C)NC(=O)NC1c1ccc(CC)cc1 (centres unmarked) | > 10 µM |

Next, values leading:

| IC50 | SMILES |
| --- | --- |
| > 10 µM | CC1=C(C(=O)OC(C)C)C(c2ccc(Cl)cc2)NC(=O)N1 (centres unmarked) |
| > 10 µM | CC1=C(C(=O)OC(C)C)C(c2c(F)cccc2Cl)NC(=O)N1 (centres unmarked) |
| > 10 µM | COC(=O)C1=C(C)N(C)C(=O)NC1c1cccc(C)c1 (centres unmarked) |
| > 10 µM | CCN(CC)C(=O)C1=C(C)NC(=S)NC1c1ccc(C)cc1 (centres unmarked) |
| > 10 µM | CC1=C(C(=O)OC(C)(C)C)C(c2cccc(Br)c2)NC(=O)N1 (centres unmarked) |
| > 10 µM | CCOC(=O)C1=C(C)NC(=S)NC1c1ccc(C)cc1C (centres unmarked) |
| ≤ 5 µM | COC(=O)C1=C(C)N(C)C(=S)NC1c1cccc(Cl)c1Cl (centres unmarked) |
| > 10 µM | CC1=C(C(=O)OC(C)C)C(c2c(Cl)cccc2Cl)NC(=O)N1 (centres unmarked) |
| > 10 µM | CCCOC(=O)C1=C(C)NC(=O)NC1c1cccc(Cl)c1 (centres unmarked) |
| > 10 µM | CCOC(=O)C1=C(C(C)C)NC(=O)NC1c1ccc(F)cc1 (centres unmarked) |
| > 10 µM | CCN1C(=O)NC(c2cc(C)ccc2C)C(C(=O)OC)=C1C (centres unmarked) |

Same assay, conditions: Table 2; read-out: hTRPA1 Fluor IC50

| IC50 | SMILES |
| --- | --- |
| > 10 µM | CC(C)C(NC(=O)Cn1cnc2c1c(=O)n(C)c(=O)n2C)c1ccc2c(c1)OCCCO2 (centres unmarked) [Compound 345] |
| > 10 µM | Cc1ccc(-c2csc(NC(=O)Cn3cnc4c3c(=O)n(C)c(=O)n4C)n2)cc1C [Compound 270] |
| > 10 µM | Cc1ccc(NC(=O)Cn2cnc3c2c(=O)n(C)c(=O)n3C)c([N+](=O)[O-])c1 [Compound 222] |
| ≤ 5 µM | Cn1c(=O)c2c(ncn2CC(=O)Nc2ccc(N3CCOCC3)cc2)n(C)c1=O [Compound 247] |
| ≤ 10 µM | CC(C)N(c1ccccc1)c1ccc(NC(=O)Cn2cnc3c2c(=O)n(C)c(=O)n3C)cc1 [Compound 273] |
| > 10 µM | COC(=O)C(CC(C)C)NC(=O)Cn1cnc2c1c(=O)n(C)c(=O)n2C (centres unmarked) [Compound 378] |
| ≥ 30 µM | Cc1cccc(NC(=O)C(C)n2cnc3c2c(=O)n(C)c(=O)n3C)c1 (centres unmarked) [Compound 328] |
| > 10 µM | CC(C)N(C(=O)Cn1cnc2c1c(=O)n(C)c(=O)n2C)c1ccccc1 [Compound 336] |
| ≥ 30 µM | COC(=O)c1ccc(C)c(NC(=O)Cn2cnc3c2c(=O)n(C)c(=O)n3C)c1 [Compound 346] |
| > 10 µM | CC(C)C(C)NC(=O)Cn1cnc2c1c(=O)n(C)c(=O)n2C (centres unmarked) [Compound 332] |
| > 10 µM | Cc1cc(C)n(CCCNC(=O)Cn2cnc3c2c(=O)n(C)c(=O)n3C)n1 [Compound 323] |
| > 10 µM | CN(Cc1ccccc1N1CCOCC1)C(=O)Cn1cnc2c1c(=O)n(C)c(=O)n2C [Compound 342] |
| > 10 µM | CC(NC(=O)Cn1cnc2c1c(=O)n(C)c(=O)n2C)c1ccccc1 (centres unmarked) [Compound 220] |
| > 10 µM | Cc1ccc(NC(=O)Cn2cnc3c2c(=O)n(C)c(=O)n3C)c(Cl)c1 [Compound 263] |
| > 10 µM | Cn1c(=O)c2c(ncn2CC(=O)Nc2ccccn2)n(C)c1=O [Compound 369] |
| > 10 µM | Cn1c(=O)c2c(ncn2CC(=O)Nc2ccc(F)c(F)c2F)n(C)c1=O [Compound 276] |
| > 10 µM | Cn1c(=O)c2c(ncn2CC(=O)NCCc2c[nH]c3ccccc23)n(C)c1=O [Compound 335] |
| > 10 µM | CCCC(C)NC(=O)Cn1cnc2c1c(=O)n(C)c(=O)n2C (centres unmarked) [Compound 376] |

| IC50 | SMILES |
| --- | --- |
| > 10 µM | CSc1ccccc1NC(=O)CN(C)C(=O)Cn1cnc2c1c(=O)n(C)c(=O)n2C [Compound 311] |
| > 10 µM | CN(CC(=O)Nc1ccc(F)c(F)c1F)C(=O)Cn1cnc2c1c(=O)n(C)c(=O)n2C [Compound 293] |
| > 10 µM | Cn1c(=O)c2c(ncn2CC(=O)Nc2ccnn2C2CCCC2)n(C)c1=O [Compound 340] |
| > 10 µM | CC(C(=O)Nc1ccc2c(c1)OCO2)n1cnc2c1c(=O)n(C)c(=O)n2C (centres unmarked) [Compound 331] |
| > 10 µM | Cc1ccc(NC(=O)Cn2cnc3c2c(=O)n(C)c(=O)n3C)cc1 [Compound 259] |
| ≤ 10 µM | CCc1sc(NC(=O)Cn2cnc3c2c(=O)n(C)c(=O)n3C)nc1-c1ccccc1 [Compound 381] |
| > 10 µM | Cn1c(=O)c2c(ncn2CC(=O)Nc2ccccc2Cl)n(C)c1=O [Compound 221] |
| > 10 µM | Cn1c(=O)c2c(ncn2CC(=O)NC2CCCC2)n(C)c1=O [Compound 218] |
| > 10 µM | CC(C(=O)Nc1cccc(Cl)c1)n1cnc2c1c(=O)n(C)c(=O)n2C (centres unmarked) [Compound 297] |
| ≤ 5 µM | CCN(C(=O)Cn1cnc2c1c(=O)n(C)c(=O)n2C)c1ccc(F)cc1 [Compound 291] |
| > 10 µM | CCC(C)(C)NC(=O)Cn1cnc2c1c(=O)n(C)c(=O)n2C [Compound 382] |
| > 10 µM | CC(NC(=O)Cn1cnc2c1c(=O)n(C)c(=O)n2C)c1ccc2c(c1)OCCO2 (centres unmarked) [Compound 310] |
| > 10 µM | Cn1c(=O)c2c(ncn2CC(=O)Nc2ccccc2Cc2ccccc2)n(C)c1=O [Compound 258] |
| ≤ 10 µM | COc1ccc(NC(=O)Cn2cnc3c2c(=O)n(C)c(=O)n3C)cc1Cl [Compound 280] |
| > 10 µM | CCOC(=O)c1ccccc1NC(=O)Cn1cnc2c1c(=O)n(C)c(=O)n2C [Compound 362] |
| > 10 µM | COc1ccc(CNC(=O)Cn2cnc3c2c(=O)n(C)c(=O)n3C)cc1 [Compound 364] |
| > 10 µM | CCN(C(=O)Cn1cnc2c1c(=O)n(C)c(=O)n2C)c1ccccc1 [Compound 283] |
| > 10 µM | CC(C(=O)Nc1ccccc1)n1cnc2c1c(=O)n(C)c(=O)n2C (centres unmarked) [Compound 302] |
